Assay results: PubChem BioAssay AID2060597 (Global Health Medicines R&D, GSK, 2025)
The source made the active and inactive calls.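 Rule for the calls: active = blocking male or female gamete formation with potency of about 10 µM or stronger; inactive = the rest.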

Assays:
[1] = system: P. falciparum 3D7A gametocytes, male exflagellation, 48 h; test: transmission-blocking activity on Pf gametocytes – dual gamete formation, strain 3D7A, dose response (AID 2060597)
[2] = as above; conditions: P. falciparum 3D7A gametocytes, male exflagellation, 48 h

IC50 [1] [µM]	SMILES	outcome [2]
> 10	O=C(c1cc2ccccc2[nH]1)N1CCC2(CC(Nc3ccncn3)C2)C1 (stereo not drawn)	
> 10	CC(C)Oc1ccc(-c2nnc(Oc3cccc4c3CCN(CCC(N)=O)CC4)s2)cc1C#N	
> 10	N#Cc1cccc(NC(=O)CNc2ccccc2C(=O)NC2CC2)c1	
> 10	O=C1CSc2ccc(C(=O)Nc3ccc(-c4nnc5n4CCCCC5)cc3)cc2N1	
> 10	O=C(CCN=C1NS(=O)(=O)c2ccccc21)Nc1ccc(S(=O)(=O)N2CCCC2)cc1	
> 10	O=C(Nc1nnc(-c2ccccc2)s1)N1CCCN(c2ncccn2)CC1	
> 10	O=C(Nc1ccc(N2CCCC2)nc1)N1CCN(c2cnccn2)CC1	
> 10	CCCOc1cncc(S(=O)(=O)c2ccc3c(c2)CCN(C2CCC2)CC3)c1	
> 10	COc1ccc(C(=O)N2CCN(c3ccc(-n4cccn4)nn3)CC2)cc1OC	
> 10	COc1ccc2oc(C(=O)NC3CCC(Oc4ncccn4)CC3)cc2c1 (stereo not drawn)	
> 10	O=C(/C=C/c1n[nH]c2ccccc12)Nc1ccc(C(=O)NCCN2CCOCC2)cc1	
> 10	O=C(Nc1cccnc1)C1CCN(c2ccc(-c3ccco3)nn2)CC1	
> 10	Cc1cc(Cl)ccc1OCC(=O)N1CCc2c(cnc(C)c2CNC(=O)c2ccc(=O)[nH]n2)C1	
> 10	O=C(CCn1nnc2cc(S(=O)(=O)N3CCCC3)ccc21)N1CCN(c2ccccn2)CC1	
> 10	O=C1CCCN1c1ccc(S(=O)(=O)N2CCN(S(=O)(=O)c3ccccc3)CC2)cc1	
> 10	O=C(COc1ccc(Br)cc1F)N1CCN(c2cnccn2)CC1	

IC50 [1] [µM]	SMILES	outcome [2]
> 10	COc1ccc(-c2ccc(CNC(=O)c3cc(C(=O)NC(C)C)ccc3Cl)cc2)cn1	
> 10	Cn1cccc1C1CCCN1CC(=O)Nc1ccc(S(=O)(=O)N2CCOCC2)cc1 (stereo not drawn)	
> 10	NC(=O)CC1CCN(C(=O)c2sc3sccc3c2Cl)CC1	
> 10	CCN(C(=O)C=Cc1ccc(S(=O)(=O)N2CCc3ccccc32)cc1)C1CCS(=O)(=O)C1 (stereo not drawn)	
> 10	Cc1ccc2nc(CCNC(=O)CCS(=O)(=O)c3ccc4c(c3)CC(=O)N4C)[nH]c2c1	
> 10	Cc1cccc(-c2nn(Cc3ccc(C(=O)NCCCO)cc3)c(=O)cc2N2CCCC(CO)C2)c1 (stereo not drawn)	
> 10	N#Cc1c(N)n[nH]c1CCCNC(=O)c1ccc(Cl)c(S(=O)(=O)N2CCCC2)c1	
> 10	COc1ccc(NC(=O)c2ccc3c(=O)n(Cc4ccccn4)cnc3c2)cc1N1CCN(C)CC1	
	O=C(NCCCN1CCc2ccccc21)c1ccc2c(=O)n(Cc3ccccn3)cnc2c1	active
> 10	Cc1nn(C2CCS(=O)(=O)C2)c(C)c1CN(C)C(=O)CN1C(=O)NC2(CCCCC2C)C1=O (stereo not drawn)	
> 5.01	O=C(/C=C/c1n[nH]c2ccccc12)N1CCN(c2cnccn2)CC1	
> 10	COc1ccc(N2CCN(C(=O)c3csc(Nc4ccccc4S(C)(=O)=O)n3)CC2)nc1	
> 10	CN(C(=O)C[C@@H]1CCN(C(=O)C2CC2)C1)c1ccc(-c2ccc(C#N)cc2)cc1	
> 10	O=C(CCCc1c[nH]c2ccccc12)N1CCN(c2ccc(N3CCOCC3)nn2)CC1	
> 10	Cc1cc(-c2cnc(N3CCn4c(nnc4C4CC4)C3)nc2-c2ccncc2)on1	
> 10	O=C(CCCc1ncc(-c2ccccc2)o1)N1CCOC2CCCC21 (stereo not drawn)	

SMILES	IC50 [1] [µM]	outcome [2]
CCN(CC)c1ccc(C(=O)COc2ccc3c(c2)CCNCC3)cc1	> 10	
